In patent US12077503B2, “Substituted cyclic amides and their use as herbicides” (FMC CORPORATION, priority 2015, dated 2024):
Read-outs that look alike come from different tables or passages of the source.

Tests used:
Type in all cases: in vivo
[1] = test system: giant foxtail (Setaria faberii); test: Test A preemergence; conditions: Setaria faberi, pre-emergence, 240 h; for pest or weed control at 125 g/ha: 125 g ai/ha, Preemergence, visual injury rating after approximately 10 d, read-out: Foxtail, Giant plant response rating (0 to 100 scale, 0 is no effect, 100 is complete control); for pest or weed control at 500 g/ha: 500 g ai/ha, preemergence, visual injury rating about 10 d after treatment, 0 to 100 scale (0 no effect, 100 complete control), read-out: Foxtail, Giant plant response rating
In short: (§1)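 Each rating is a visual injury score from 0 to 100 given about 10 d after treatment, judged against untreated controls kept alongside in the greenhouse. In loam soil–sand blend, seeds got a preemergence directed soil spray, while postemergence plants were 2 to 10 cm tall at spraying.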

[2] = test system: barnyardgrass (Echinochloa crus-galli); test: Test A preemergence; conditions: Echinochloa crus-galli, pre-emergence, 240 h; for pest or weed control at 125 g/ha: 125 g ai/ha, Preemergence, visual injury rating after approximately 10 d, read-out: Barnyardgrass plant response rating (0 to 100 scale, 0 is no effect, 100 is complete control); for pest or weed control at 500 g/ha: 500 g ai/ha, preemergence, visual injury rating about 10 d after treatment, 0 to 100 scale (0 no effect, 100 complete control), read-out: Barnyardgrass plant response rating
In short: as §1

[3] = test system: pigweed (Amaranthus retroflexus); test: Test A preemergence; conditions: Amaranthus retroflexus, pre-emergence, 240 h; for pest or weed control at 125 g/ha: 125 g ai/ha, Preemergence, visual injury rating after approximately 10 d, read-out: Pigweed plant response rating (0 to 100 scale, 0 is no effect, 100 is complete control); for pest or weed control at 500 g/ha: 500 g ai/ha, preemergence, visual injury rating about 10 d after treatment, 0 to 100 scale (0 no effect, 100 complete control), read-out: Pigweed plant response rating
[4] = test system: ryegrass, Italian (Italian ryegrass, Lolium multiflorum); test: Test A preemergence; conditions: Lolium multiflorum, pre-emergence, 240 h; for pest or weed control at 125 g/ha: 125 g ai/ha, Preemergence, visual injury rating after approximately 10 d, read-out: Ryegrass, Italian plant response rating (0 to 100 scale, 0 is no effect, 100 is complete control); for pest or weed control at 500 g/ha: 500 g ai/ha, preemergence, visual injury rating about 10 d after treatment, 0 to 100 scale (0 no effect, 100 complete control), read-out: Ryegrass, Italian plant response rating
In short: as §1

[5] = test system: Kochia (Kochia scoparia); test: Test A preemergence; conditions: Bassia scoparia, pre-emergence, 240 h; for pest or weed control at 125 g/ha: 125 g ai/ha, Preemergence, visual injury rating after approximately 10 d, read-out: Kochia plant response rating (0 to 100 scale, 0 is no effect, 100 is complete control); for pest or weed control at 500 g/ha: 500 g ai/ha, preemergence, visual injury rating about 10 d after treatment, 0 to 100 scale (0 no effect, 100 complete control), read-out: Kochia plant response rating
In short: as §1

[6] = test system: ragweed (common ragweed, Ambrosia elatior); test: Test A preemergence; conditions: Ambrosia artemisiifolia, pre-emergence, 240 h; for pest or weed control at 125 g/ha: 125 g ai/ha, Preemergence, visual injury rating after approximately 10 d, read-out: Ragweed plant response rating (0 to 100 scale, 0 is no effect, 100 is complete control); for pest or weed control at 500 g/ha: 500 g ai/ha, preemergence, visual injury rating about 10 d after treatment, 0 to 100 scale (0 no effect, 100 complete control), read-out: Ragweed plant response rating
In short: as §1

[7] = test system: sedge, umbrella (small-flower umbrella sedge, Cyperus difformis); test: Test B flooded paddy test; conditions: Cyperus difformis, Flood, 250 g ai/ha, read-out: Sedge, Umbrella plant response rating
In short: (§2)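 Rating scale 0–100 (visual, vs untreated controls) after a 13–15 d greenhouse period; application to the flood layer, 3 cm above soil and maintained; plants at 2-leaf stage when treated.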

[8] = test system: rice (Oryra sativa); test: Test B flooded paddy test; conditions: Oryza sativa, Flood, 250 g ai/ha; scale of 0 to 100 where 0 is no effect and 100 is complete control; read-out: Rice plant response rating
In short: as §2

[9] = test system: barnyardgrass (Echinochloa crus-galli); test: Test B flooded paddy test; conditions: Echinochloa crus-galli, Flood, 250 g ai/ha; scale of 0 to 100 where 0 is no effect and 100 is complete control; read-out: Barnyardgrass plant response rating
In short: as §2

[10] = test system: ducksalad (Heteranthera limosa); test: Test B flooded paddy test; conditions: Heteranthera limosa, Flood, 250 g ai/ha; scale of 0 to 100 where 0 is no effect and 100 is complete control; read-out: Ducksalad plant response rating
In short: as §2

[11] = test system: blackgrass (Alopecurus myosuroides); test: Test A postemergence; conditions: Alopecurus myosuroides, post-emergence, 240 h, 125 g ai/ha, Postemergence; visual injury after approximately 10 d; 0 to 100 scale where 0 is no effect and 100 is complete control; read-out: Plant response rating, Blackgrass
In short: as §1

[12] = test system: giant foxtail (Setaria faberii); test: Test A postemergence; conditions: Setaria faberi, post-emergence, 240 h, 125 g ai/ha, Postemergence; visual injury after approximately 10 d; 0 to 100 scale where 0 is no effect and 100 is complete control; read-out: Plant response rating, Foxtail, Giant
In short: as §1

[13] = test system: corn (Zea mays); test: Test A postemergence; conditions: Zea mays, post-emergence, 240 h, 125 g ai/ha, Postemergence; visual injury after approximately 10 d; 0 to 100 scale where 0 is no effect and 100 is complete control
In short: as §1

[14] = test system: barnyardgrass (Echinochloa crus-galli); test: Test A postemergence; conditions: Echinochloa crus-galli, post-emergence, 240 h, 125 g ai/ha, Postemergence; visual injury after approximately 10 d; 0 to 100 scale where 0 is no effect and 100 is complete control; read-out: Plant response rating, Barnyardgrass
In short: as §1

[15] = test system: wheat (Triticum aestivum); test: Test A postemergence; conditions: Triticum aestivum, post-emergence, 240 h, 125 g ai/ha, Postemergence; visual injury after approximately 10 d; 0 to 100 scale where 0 is no effect and 100 is complete control; read-out: Plant response rating, Wheat
In short: as §1

[16] = test system: pigweed (Amaranthus retroflexus); test: Test A postemergence; conditions: Amaranthus retroflexus, post-emergence, 240 h, 125 g ai/ha, Postemergence; visual injury after approximately 10 d; 0 to 100 scale where 0 is no effect and 100 is complete control; read-out: Plant response rating, Pigweed
In short: as §1

[17] = test system: ryegrass, Italian (Italian ryegrass, Lolium multiflorum); test: Test A postemergence; conditions: Lolium multiflorum, post-emergence, 240 h, 125 g ai/ha, Postemergence; visual injury after approximately 10 d; 0 to 100 scale where 0 is no effect and 100 is complete control; read-out: Plant response rating, Ryegrass, Italian
In short: as §1

[18] = test system: Galium (catchweed bedstraw, Galium aparine); test: Test A postemergence; conditions: Galium, post-emergence, 240 h, 125 g ai/ha, Postemergence; visual injury after approximately 10 d; 0 to 100 scale where 0 is no effect and 100 is complete control; read-out: Plant response rating, Galium
In short: as §1

[19] = test system: Kochia (Kochia scoparia); test: Test A postemergence; conditions: Bassia scoparia, post-emergence, 240 h, 125 g ai/ha, Postemergence; visual injury after approximately 10 d; 0 to 100 scale where 0 is no effect and 100 is complete control; read-out: Plant response rating, Kochia
In short: as §1

[20] = test system: ragweed (common ragweed, Ambrosia elatior); test: Test A postemergence; conditions: Ambrosia artemisiifolia, post-emergence, 240 h, 125 g ai/ha, Postemergence; visual injury after approximately 10 d; 0 to 100 scale where 0 is no effect and 100 is complete control; read-out: Plant response rating, Ragweed
In short: as §1

| SMILES | pest or weed control at 125 g/ha [1] | pest or weed control at 500 g/ha [1] | pest or weed control at 125 g/ha [2] | pest or weed control at 500 g/ha [2] | pest or weed control at 125 g/ha [3] | pest or weed control at 500 g/ha [3] | pest or weed control at 125 g/ha [4] | pest or weed control at 500 g/ha [4] | pest or weed control at 125 g/ha [5] | pest or weed control at 500 g/ha [5] | pest or weed control at 125 g/ha [6] | pest or weed control at 500 g/ha [6] | pest or weed control at 250 g/ha [8] | pest or weed control at 250 g/ha [9] | pest or weed control at 250 g/ha [10] | pest or weed control at 125 g/ha [11] | pest or weed control at 125 g/ha [12] | Corn plant response rating (crop injury, 0 = no effect, 100 = complete kill) at 125 g/ha [13] | pest or weed control at 125 g/ha [14] | plant injury at 125 g/ha [15] | other results |
| --- | --- | --- | --- | --- | --- | --- | --- | --- | --- | --- | --- | --- | --- | --- | --- | --- | --- | --- | --- | --- | --- |
| COc1ccc([C@H]2CN(C)C(=O)[C@@H]2C(=O)Nc2ccccc2F)cc1C(F)(F)F [Compound 984] | 100% | 100% | 100% | 100% | 40% | 60% | 70% | 30% | 90% | 90% | 0% | 30% | 15% | 55% | 85% | 30% | 90% | 80% | 100% | 20% | pest or weed control at 250 g/ha ([7]; scale of 0 to 100 where 0 is no effect and 100 is complete control): 0%; pest or weed control at 125 g/ha [16]: 0%; pest or weed control at 125 g/ha [17]: 20%; pest or weed control at 125 g/ha [18]: 30%; pest or weed control at 125 g/ha [19]: 50%; pest or weed control at 125 g/ha [20]: 0% |
| Cc1c(F)cccc1NC(=O)[C@H]1C(=O)N(C)C[C@@H]1c1cc(F)cc(C(F)(F)F)c1 [Compound 994] | 100% | 100% | 90% | 100% | 30% | 70% | 70% | 100% | 40% | 60% | 0% | 0% | 20% | 75% | 100% | 60% | 90% | 70% | 100% | 70% | pest or weed control at 250 g/ha ([7]; 0 to 100 scale where 0 is no effect and 100 is complete control): 0%; pest or weed control at 125 g/ha [16]: 0%; pest or weed control at 125 g/ha [17]: 70%; pest or weed control at 125 g/ha [18]: 50%; pest or weed control at 125 g/ha [19]: 40%; pest or weed control at 125 g/ha [20]: 20% |
